The structures appear in SMILES notation. Where only a bound is given, the exact number is not on record here.

T1 sequence (P13569 with tags, fused parts or gaps DEL508-508): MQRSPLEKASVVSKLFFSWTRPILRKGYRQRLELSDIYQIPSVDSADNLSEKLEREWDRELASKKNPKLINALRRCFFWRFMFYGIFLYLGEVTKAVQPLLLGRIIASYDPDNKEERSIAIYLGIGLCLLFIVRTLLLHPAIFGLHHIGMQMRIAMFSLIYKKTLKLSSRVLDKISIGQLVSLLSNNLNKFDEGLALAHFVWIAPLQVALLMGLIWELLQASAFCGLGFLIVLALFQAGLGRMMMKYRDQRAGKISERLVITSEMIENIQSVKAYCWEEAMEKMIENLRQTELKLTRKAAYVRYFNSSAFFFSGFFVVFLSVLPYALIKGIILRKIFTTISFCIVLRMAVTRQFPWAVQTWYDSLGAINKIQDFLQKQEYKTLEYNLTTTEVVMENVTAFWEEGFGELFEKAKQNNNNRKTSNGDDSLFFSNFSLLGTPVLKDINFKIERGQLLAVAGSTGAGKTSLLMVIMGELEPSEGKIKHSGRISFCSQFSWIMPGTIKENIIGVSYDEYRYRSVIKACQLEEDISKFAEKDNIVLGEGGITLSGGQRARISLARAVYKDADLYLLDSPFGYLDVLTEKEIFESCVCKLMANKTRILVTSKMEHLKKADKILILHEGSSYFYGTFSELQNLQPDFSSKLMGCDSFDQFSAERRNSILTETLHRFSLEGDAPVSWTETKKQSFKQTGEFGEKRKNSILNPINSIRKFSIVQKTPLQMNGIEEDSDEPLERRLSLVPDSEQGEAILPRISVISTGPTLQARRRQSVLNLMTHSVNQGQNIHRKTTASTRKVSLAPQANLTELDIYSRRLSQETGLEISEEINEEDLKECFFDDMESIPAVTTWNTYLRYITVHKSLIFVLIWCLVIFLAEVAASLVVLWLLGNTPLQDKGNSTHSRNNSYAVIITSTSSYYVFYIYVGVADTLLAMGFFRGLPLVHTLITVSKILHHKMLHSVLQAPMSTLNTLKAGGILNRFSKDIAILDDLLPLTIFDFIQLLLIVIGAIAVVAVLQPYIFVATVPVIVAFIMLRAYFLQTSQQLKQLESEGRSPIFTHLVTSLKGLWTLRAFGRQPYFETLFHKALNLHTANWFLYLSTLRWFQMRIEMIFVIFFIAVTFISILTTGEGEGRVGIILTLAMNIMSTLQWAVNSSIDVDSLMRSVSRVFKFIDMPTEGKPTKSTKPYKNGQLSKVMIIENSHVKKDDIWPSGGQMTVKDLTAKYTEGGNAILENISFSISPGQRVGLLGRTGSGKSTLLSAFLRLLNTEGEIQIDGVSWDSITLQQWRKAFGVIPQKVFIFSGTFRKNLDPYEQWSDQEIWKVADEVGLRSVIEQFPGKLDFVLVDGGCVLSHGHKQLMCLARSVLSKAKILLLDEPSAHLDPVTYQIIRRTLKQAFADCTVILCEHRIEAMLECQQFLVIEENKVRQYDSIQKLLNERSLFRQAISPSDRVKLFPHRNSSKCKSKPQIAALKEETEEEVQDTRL

One assay addresses T1, F508del (Homo sapiens, UniProt P13569, DEL508-508).
T1 construct: expressed in transfected cells
Briefly: Protocol 2: FRET membrane potential optical assay (VIPR), identification of correction compounds. Type of assay: cell-based. Particulars: F508del CFTR modulator activity; compounds of Table 1; read-out: EC30. In outline: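 Single-addition HTS format: F508del-expressing NIH3T3 cells pre-incubated 16 hrs at 37° C. ± compound, with 27° C. culture as positive control. Channel activation by forskolin 10 μM and genistein 20 μM upon switch to gluconate bath, pH 7.4; read-out is FRET-based depolarization signal.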
For `Cc1nc2cc(Oc3cccc(S(=O)(=O)NC(=O)c4cccnc4N4CC(C)CC4(C)C)n3)ccc2s1` (stereo not drawn) [Compound 2729], the concentration for an effect of 30% (EC30) was less than 3 µM.

For the compound `Cc1cc(-c2ccc(C(=O)NS(=O)(=O)c3cccc(N)n3)c(N3C[C@@H](C)CC3(C)C)n2)cc(OC(C)C)n1` [Compound 2306, N-[(6-amino-2-pyridyl)sulfonyl]-6-(2-isopropoxy-6-methyl-4-pyridyl)-2-[(4S)-2,2,4-trimethylpyrrolidin-1-yl]pyridine-3-carboxamide], the EC30 was less than 3 µM.

On to `CC1CCN(c2cccc(S(=O)(=O)NC(=O)c3cccnc3N3CC(C)CC3(C)C)n2)C1` (stereo not drawn) [Compound 2116, N—[[6-(3-methylpyrrolidin-1-yl)-2-pyridyl]sulfonyl]-2-(2,2,4-trimethylpyrrolidin-1-yl)pyridine-3-carboxamide], for which the EC30 is less than 3 µM.

Turning to `CC(C)OC(=O)Nc1cccc(S(=O)(=O)NC(=O)c2ccc(C3=CCCNC3)nc2N2C[C@@H](C)CC2(C)C)n1` [Compound 2624, isopropyl N—[6-[[6-(1,2,3,6-tetrahydropyridin-5-yl)-2-[(4S)-2,2,4-trimethylpyrrolidin-1-yl]pyridine-3-carbonyl]sulfamoyl]-2-pyridyl]carbamate], the EC30 lay in the range of 3 to 10 µM.

Take `Cc1ccc(CCNc2cccc(S(=O)(=O)NC(=O)c3cccnc3N3CC(C)CC3(C)C)n2)cc1` (stereo not drawn) [Compound 2502, N—[[6-[2-(p-tolyl)ethylamino]-2-pyridyl]sulfonyl]-2-(2,2,4-trimethylpyrrolidin-1-yl)pyridine-3-carboxamide]: the EC30 was less than 3 µM.

For `CCCCOc1cccc(S(=O)(=O)NC(=O)c2cccnc2N2CC(C)CC2(C)C)n1` (stereo not drawn) [Compound 2167, N-[(6-butoxy-2-pyridyl)sulfonyl]-2-(2,2,4-trimethylpyrrolidin-1-yl)pyridine-3-carboxamide], the EC30 was less than 3 µM.

In the case of `CC1CN(c2ncccc2C(=O)NS(=O)(=O)c2cccc(OCc3cccc(Cl)c3)n2)C(C)(C)C1` (stereo not drawn) [Compound 2264, N—[[6-[(3-chlorophenyl)methoxy]-2-pyridyl]sulfonyl]-2-(2,2,4-trimethylpyrrolidin-1-yl)pyridine-3-carboxamide], the EC30 is less than 3 µM.

`CC1CN(c2ncccc2C(=O)NS(=O)(=O)c2cccc(NCCc3ccccc3Cl)n2)C(C)(C)C1` (stereo not drawn) [Compound 2632, N—[[6-[2-(2-chlorophenyl)ethylamino]-2-pyridyl]sulfonyl]-2-(2,2,4-trimethylpyrrolidin-1-yl)pyridine-3-carboxamide]: the EC30 was less than 3 µM.

As for `C[C@@H]1CN(c2nc(-c3cccc(NCC(C)(C)C)n3)ccc2C(=O)NS(=O)(=O)c2cccnc2N)C(C)(C)C1` [Compound 2500, N-[(2-amino-3-pyridyl)sulfonyl]-6-[6-(2,2-dimethylpropylamino)-2-pyridyl]-2-[(4S)-2,2,4-trimethylpyrrolidin-1-yl]pyridine-3-carboxamide], the EC30 is less than 3 µM.

`COc1ccc(-c2ccc(C(=O)NS(=O)(=O)c3cccnc3N)c(N3C[C@@H](C)CC3(C)C)n2)c(C)c1` [Compound 2494, N-[(2-amino-3-pyridyl)sulfonyl]-6-(4-methoxy-2-methyl-phenyl)-2-[(4S)-2,2,4-trimethylpyrrolidin-1-yl]pyridine-3-carboxamide]: the EC30 is less than 3 µM.

As for `CC(C)COc1cc(F)cc(-c2ccc(C(=O)NS(=O)(=O)N3CC[C@H](F)C3)c(N3C[C@@H](C)CC3(C)C)n2)c1` [Compound 2228, 6-(3-fluoro-5-isobutoxy-phenyl)-N-[(3S)-3-fluoropyrrolidin-1-yl]sulfonyl-2-[(4S)-2,2,4-trimethylpyrrolidin-1-yl]pyridine-3-carboxamide], the EC30 was less than 3 µM.

Turning to `CC(C)Cn1cc(-c2ccc(C(=O)NS(=O)(=O)c3cccnc3N)c(N3C[C@@H](C)CC3(C)C)n2)cn1` [Compound 2231, N-[(2-amino-3-pyridyl)sulfonyl]-6-(1-isobutylpyrazol-4-yl)-2-[(4S)-2,2,4-trimethylpyrrolidin-1-yl]pyridine-3-carboxamide], the EC30 is less than 3 µM.

With `CC1CN(c2ncc(-c3cc(OC(C)C)ccc3Cl)cc2C(=O)NS(=O)(=O)c2cccc(N)n2)C(C)(C)C1` (stereo not drawn) [Compound 2210, N-[(6-amino-2-pyridyl)sulfonyl]-5-(2-chloro-5-isopropoxy-phenyl)-2-(2,2,4-trimethylpyrrolidin-1-yl)pyridine-3-carboxamide], the EC30 is less than 3 µM.

On to `CC(C)COc1cc(F)cc(-c2ccc(C(=O)N(C)S(=O)(=O)c3cccc(N)n3)c(N3C[C@@H](C)CC3(C)C)n2)c1` [Compound 2258, N-[(6-amino-2-pyridyl)sulfonyl]-6-(3-fluoro-5-isobutoxy-phenyl)-N-methyl-2-[(4S)-2,2,4-trimethylpyrrolidin-1-yl]pyridine-3-carboxamide], for which the EC30 is less than 3 µM.

Turning to `CC(C)CN(C)c1cccc(S(=O)(=O)NC(=O)c2cccnc2N2CC(C)CC2(C)C)n1` (stereo not drawn) [Compound 2746], the EC30 is less than 3 µM.

The assay is the same for the next values; noted with them: Table 3; compounds of Table 1 as modulators of CFTR activity; protocol not stated.
For the compound `Cc1cccc(C)c1Cn1c(C(=O)NS(=O)(=O)c2cccc(N)c2)cc2ccccc21` [Compound 331, N-(3-aminophenyl)sulfonyl-1-[(2,6-dimethylphenyl)methyl]indole-2-carboxamide], the EC30 result is recorded as “+++ (“+++” means <3 uM)”.

Consider `Cc1cc(C)c(Oc2nc3c(cc2C(=O)NS(=O)(=O)c2cccc(N)n2)CCCC3(C)C)c(C)c1` [Compound 182, N-[(6-amino-2-pyridyl)sulfonyl]-8,8-dimethyl-2-(2,4,6-trimethylphenoxy)-6,7-dihydro-5H-quinoline-3-carboxamide], for which the EC30 entry is “+++ (“+++” means <3 uM)”.

For the compound `COc1ccc(S(=O)(=O)NC(=O)c2ccc(C(C)(C)C)nc2-c2ccc(C)cc2)cc1` [Compound 206, 6-tert-butyl-N-(4-methoxyphenyl)sulfonyl-2-(p-tolyl)pyridine-3-carboxamide], the EC30 result is recorded as “+++ (“+++” means <3 uM)”.

With `Cc1cc(C)c(Cn2nc(C(C)(C)C)cc2C(=O)C(C)S(=O)(=O)c2ccccc2)c(C)c1` (racemic) [Compound 139, 2-(benzenesulfonyl)-1-[5-tert-butyl-2-[(2,4,6-trimethylphenyl)methyl]pyrazol-3-yl]propan-1-one], the EC30 entry is “+++ (“+++” means <3 uM)”.

In the case of `Cc1cc(C)c(Oc2nc(-n3ccc(C(F)(F)F)n3)ccc2C(=O)NS(=O)(=O)c2cccc(N)n2)c(C)c1` [Compound 676, N-[(6-amino-2-pyridyl)sulfonyl]-6-[3-(trifluoromethyl)pyrazol-1-yl]-2-(2,4,6-trimethylphenoxy)pyridine-3-carboxamide], the concentration for an effect of 30% (EC30) result is recorded as “+++ (“+++” means <3 uM)”.

`CC(C)Oc1ccc(-c2ccc(C(=O)NS(=O)(=O)c3cccc(N)n3)c(N3CCCC(C(C)C)C3)n2)cn1` (stereo not drawn) [Compound 114, N-[(6-amino-2-pyridyl)sulfonyl]-6-(6-isopropoxy-3-pyridyl)-2-(3-isopropyl-1-piperidyl)pyridine-3-carboxamide]: the EC30 result is “+++ (“+++” means <3 uM)”.

As for `Cc1cc(C)c(Cn2c(C(=O)NS(=O)(=O)c3ccccc3O)cc3ccccc32)c(C)c1` [Compound 112, N-(2-hydroxyphenyl)sulfonyl-1-[(2,4,6-trimethylphenyl)methyl]indole-2-carboxamide], the EC30 entry is recorded as “+++ (“+++” means <3 uM)”.

On to `COc1cccc2c1cc(C(=O)NS(=O)(=O)c1cccc(N)c1)n2Cc1c(C)cccc1C` [Compound 168, N-(3-aminophenyl)sulfonyl-1-[(2,6-dimethylphenyl)methyl]-4-methoxy-indole-2-carboxamide], for which the EC30 result is “+++ (“+++” means <3 uM)”.

`Cc1cccc(C)c1Cn1nc(-c2cccc(OC(C)C)c2)cc1C(=O)NS(=O)(=O)c1ccccc1` [Compound 133, N-(benzenesulfonyl)-2-[(2,6-dimethylphenyl)methyl]-5-(3-isopropoxyphenyl)pyrazole-3-carboxamide]: the EC30 entry is reported as “+++ (“+++” means <3 uM)”.

Regarding `CC(c1ccccc1)c1nc(C(C)(C)C)ccc1C(=O)NS(=O)(=O)c1cccc(N)c1` (stereo not drawn) [Compound 271, N-(3-aminophenyl)sulfonyl-6-tert-butyl-2-(1-phenylethyl)pyridine-3-carboxamide], the EC30 entry was “+++ (“+++” means <3 uM)”.

For the compound `CC(C)Oc1ccc(-c2ccc(C(=O)NS(=O)(=O)c3ccn[nH]3)c(N3CCC[C@H](c4ccccc4)C3)n2)cn1` [Compound 741, 6-(6-isopropoxy-3-pyridyl)-2-[(3R)-3-phenyl-1-piperidyl]-N-(1H-pyrazol-5-ylsulfonyl)pyridine-3-carboxamide], the EC30 result was “+++ (“+++” means <3 uM)”.

As for `Cc1cc(C)c(Oc2nc(-c3ccc(OC(C)C)cc3)ccc2C(=O)NS(=O)(=O)c2ccc[nH]c2=O)c(C)c1` [Compound 494, 6-(4-isopropoxyphenyl)-N-[(2-oxo-1H-pyridin-3-yl)sulfonyl]-2-(2,4,6-trimethylphenoxy)pyridine-3-carboxamide], the EC30 result is “+++ (“+++” means <3 uM)”.

With `Cc1nc(-c2ccc(-c3cc(C(=O)NS(=O)(=O)c4ccccc4)n(Cc4c(C)cccc4C)n3)s2)no1` [Compound 151, N-(benzenesulfonyl)-2-[(2,6-dimethylphenyl)methyl]-5-[5-(5-methyl-1,2,4-oxadiazol-3-yl)-2-thienyl]pyrazole-3-carboxamide], the EC30 result was “+++ (“+++” means <3 uM)”.

As for `COCc1ccc(-c2ccc(C(=O)NS(=O)(=O)c3cccc(N)n3)c(Oc3c(C)cc(C)cc3C)n2)cc1` [Compound 66, N-[(6-amino-2-pyridyl)sulfonyl]-6-[4-(methoxymethyl)phenyl]-2-(2,4,6-trimethylphenoxy)pyridine-3-carboxamide], the 30% effect concentration (EC30) result is given as “+++ (“+++” means <3 uM)”.

Consider `CCCOc1cc(-c2ccc(C(=O)NS(=O)(=O)c3cccc(N)n3)c(N3[C@H](C)CC[C@@H]3C)n2)ccc1Cl` [Compound 773, N-[(6-amino-2-pyridyl)sulfonyl]-6-(4-chloro-3-propoxy-phenyl)-2-[(2R,5S)-2,5-dimethylpyrrolidin-1-yl]pyridine-3-carboxamide], for which the EC30 result is on record as “+++ (“+++” means <3 uM)”.

These data come from patent publication US10758534B2 (Vertex Pharmaceuticals Incorporated, priority 2014, dated 2020).
